PubChem BioAssay AID1918943 (Molecular Pharmacology Branch, DTP, NCI, 2023)

System: 855422-203-R-J1-PDC complex spheroid viability
Experiment: Anticancer human tumor 855422-203-R-J1-PDC patient-derived bladder carcinoma cell line growth inhibition
Settings: for IC50: curve of first compound; for viability, T/C: stronger effect = lower value
Excerpt: Multicellular complex tumor spheroid response to LSD1 Inhibitor Iadademstat in combination with a variety of drugs and investigational agents in selected tumor cell lines
The current study was undertaken to assess response to LSD1 inhibitors in combination with standard-of-care drugs and investigational agents in solid tumor complex spheroid models as well as in the K-562 leukemia. Complex spheroids include a stromal component modeled by human endothelial cells (HUVEC) and fibroblasts modeled by human mesenchymal stem cells (MSCs). The concentration ranges selected for each drug and investigational agent were based upon clinically achievable concentrations if the clinical Cmax of the agent was known.
Compounds. The drugs and investigational agents used in this study are listed on Table 1. All of the agents used, including staurosporine (NSC755774) and gemcitabine (NSC613327), were obtained from the Developmental Therapeutics Program, NCI. FDA-approved anticancer drugs are available from the NCI at http://dtp.nci.nih.gov/branches/dscb/oncology_drugset_explanation.html. Drugs and investigational agents were >95% pure by proton nuclear magnetic resonance (NMR) and liquid chromatography/mass spectrometry (LC/MS). Stock solutions were prepared at 400x in DMSO, stored at -70 degrees C, and diluted in fresh medium prior to their use. The final concentration of DMSO in cell culture wells never exceeded 0.25% (v/v). The FDA-approved anticancer drug set is available from the Developmental Therapeutics Program at https://dtp.cancer.gov/organization/dscb/obtaining/available_plates.htm. All drugs and investigational agents were tested over a range starting from a high concentration at or near the clinical Cmax and decreasing in half-log increments. If the clinical Cmax for an agent had not been determined, the highest concentration tested was 10 microM.
Cell Lines. The patient-derived cancer cell (PDC) lines: 292921-168-R-J2-PDC, K24384-001-R-PDC, and 521955-158-R2-J5-PDC pancreatic carcinomas, 556581-035-R-J1 ovarian carcinoma, 324938-238-R-J1-PDC, 855422-203-R-J1-PDC and 883617-216-R-J1-PDC urothelial bladder carcinomas, 743489-274-T-PDC renal cell carcinoma, 138582-R-J1 Merkel cell tumor, K60290-347-R-J1 and K57222-313-R-J1-PDC glioblastomas, 653999-131-R-J2-PDC, LG0703-F948-PDC, and 349418-098-R-PDC non-small cell lung carcinomas, 885512-296-R-J2-PDC, 171881-019-R-J1-PDC breast carcinomas and 186277-243-T-J2-PDC and 233499-124-R-J2-PDC colon carcinomas were obtained from the NCI Patient-Derived Models Repository (PDMR, https://pdmr.cancer.gov). The established cell lines NCI/ADR-RES (RRID:CVCL_14520 and OVCAR-5 (RRID:CVCL_1628) ovarian carcinomas, 786-O (RRID:CVCL_1051) and A498 (RRID:CVCL_A498) renal cell carcinoma, NCI-H211 (ATCC, cat. CRL-5824; RRID:CVCL_1529), NCI-H196 (ATCC, cat. CRL-5823, RRID:CVCL_1509), SW 1271 (ATCC, cat. CRL-2177, RRID:CVCL_1716) and NCI-H1876 (ATCC, cat. CRL-5902, RRID:CVCL_1503) small cell lung carcinomas, MDA-MB-231 (RRID:CVCL_0062) and MDA-MB-468 (RRID:CVCL_0419)breast carcinomas (10-12). Pooled donor human umbilical vein endothelial cells (HUVEC, Lonza, cat. CC-2519) and human mesenchymal stem cells (hMSC, Lonza, cat. PT-2501) were purchased from Lonza (Walkersville, MD).
Cell Culture. All cells were maintained in an incubator at 37 degrees C and 5% CO2 with 95% humidity. The PDC lines were cultured according to standard operating procedures established by the NCI PDMR (https://pdmr.cancer.gov). Briefly all PDCs were thawed and cultured in Matrigel-coated flasks prepared with a working solution of 1X Ham's F-12 nutrient mix, without supplementation (Invitrogen, Waltham, MA, cat. 11765054), 100 U/mL penicillin-streptomycin (Invitrogen, cat. 15140122), and 2.5% Matrigel (Corning Inc., Corning, NY, cat. 354248) for the first three passages. […]

[1] = second compound 0.1 µM, first compound 0.00949 µM
[2] = second compound 0.1 µM, first compound 0.03 µM
[3] = second compound 0.1 µM, first compound 0.0949 µM
[4] = second compound 0.1 µM, first compound 0.3 µM
[5] = second compound 0.1 µM, first compound 0.949 µM
[6] = second compound 0.1 µM, first compound 3 µM
[7] = second compound 0.316 µM, first compound 0.00949 µM
[8] = second compound 0.316 µM, first compound 0.03 µM
[9] = second compound 0.316 µM, first compound 0.0949 µM
[10] = second compound 0.316 µM, first compound 0.3 µM
[11] = second compound 0.316 µM, first compound 0.949 µM
[12] = second compound 0.316 µM, first compound 3 µM
[13] = second compound 1 µM, first compound 0.00949 µM
[14] = second compound 1 µM, first compound 0.03 µM
[15] = second compound 1 µM, first compound 0.0949 µM
[16] = second compound 1 µM, first compound 0.3 µM
[17] = second compound 1 µM, first compound 0.949 µM
[18] = second compound 1 µM, first compound 3 µM
[19] = second compound 3.16 µM, first compound 0.00949 µM
[20] = second compound 3.16 µM, first compound 0.03 µM
[21] = second compound 3.16 µM, first compound 0.0949 µM
[22] = second compound 3.16 µM, first compound 0.3 µM
[23] = second compound 3.16 µM, first compound 0.949 µM
[24] = second compound 3.16 µM, first compound 3 µM
[25] = second compound 10 µM, first compound 0.00949 µM
[26] = second compound 10 µM, first compound 0.03 µM
[27] = second compound 10 µM, first compound 0.0949 µM
[28] = second compound 10 µM, first compound 0.3 µM
[29] = second compound 10 µM, first compound 0.949 µM
[30] = second compound 10 µM, first compound 3 µM
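Further: drug exposure lasted 7 days starting on day 3 after seeding.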
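Wherever viability, T/C is given: luminescence viability as percent of DMSO vehicle wells = 100%.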

Nc1ccccc1NC(=O)c1ccc(CNC(=O)OCc2cccnc2)cc1 + NC1CCC(NC2CC2c2ccccc2)CC1
IC50 (second compound 0.1 µM): 1340 nM
IC50 (second compound 0.316 µM): 1430 nM
IC50 (second compound 1 µM): 1370 nM
IC50 (second compound 3.16 µM): 1390 nM
IC50 (second compound 10 µM): 1060 nM
viability, T/C [1]: 94.5%
viability, T/C [2]: 85%
viability, T/C [3]: 93.3%
viability, T/C [4]: 96.1%
viability, T/C [5]: 66.1%
viability, T/C [6]: 12.3%
viability, T/C [7]: 93.5%
viability, T/C [8]: 87.5%
viability, T/C [9]: 91.5%
viability, T/C [10]: 95%
viability, T/C [11]: 73.1%
viability, T/C [12]: 9.06%
viability, T/C [13]: 93.2%
viability, T/C [14]: 90.9%
viability, T/C [15]: 98%
viability, T/C [16]: 95.9%
viability, T/C [17]: 69.5%
viability, T/C [18]: 9.07%
viability, T/C [19]: 84.6%
viability, T/C [20]: 84.2%
viability, T/C [21]: 87.8%
viability, T/C [22]: 85.5%
viability, T/C [23]: 72%
viability, T/C [24]: 5.75%
viability, T/C [25]: 88.7%
viability, T/C [26]: 81.2%
viability, T/C [27]: 86.2%
viability, T/C [28]: 87.3%
viability, T/C [29]: 55.2%
viability, T/C [30]: 1.52%

CCN(c1cc(-c2ccc(CN3CCOCC3)cc2)cc(C(=O)NCc2c(C)cc(C)[nH]c2=O)c1C)C1CCOCC1 + NC1CC1c1ccc(-c2cccc(O)c2)cc1
IC50 (second compound 0.1 µM): > 3000 nM
IC50 (second compound 0.316 µM): > 3000 nM
IC50 (second compound 1 µM): > 3000 nM
IC50 (second compound 3.16 µM): > 3000 nM
IC50 (second compound 10 µM): > 3000 nM
viability, T/C [1]: 90.2%
viability, T/C [2]: 96.8%
viability, T/C [3]: 99%
viability, T/C [4]: 98%
viability, T/C [5]: 89%
viability, T/C [6]: 84.9%
viability, T/C [7]: 89%
viability, T/C [8]: 96.8%
viability, T/C [9]: 96.5%
viability, T/C [10]: 105%
viability, T/C [11]: 93%
viability, T/C [12]: 99.2%
viability, T/C [13]: 91.4%
viability, T/C [14]: 89.3%
viability, T/C [15]: 97.7%
viability, T/C [16]: 88.7%
viability, T/C [17]: 87.7%
viability, T/C [18]: 86.4%
viability, T/C [19]: 102%
viability, T/C [20]: 94%
viability, T/C [21]: 91.6%
viability, T/C [22]: 103%
viability, T/C [23]: 95.1%
viability, T/C [24]: 97.7%
viability, T/C [25]: 99.9%
viability, T/C [26]: 101%
viability, T/C [27]: 91.4%
viability, T/C [28]: 94.7%
viability, T/C [29]: 97.8%
viability, T/C [30]: 92.6%

O=C(c1cc(Cc2n[nH]c(=O)c3ccccc23)ccc1F)N1CCN(C(=O)C2CC2)CC1 + NC1CC1c1ccc(-c2cccc(O)c2)cc1
IC50 (second compound 0.1 µM): > 10000 nM
IC50 (second compound 0.316 µM): > 10000 nM
IC50 (second compound 1 µM): > 10000 nM
IC50 (second compound 3.16 µM): > 10000 nM
IC50 (second compound 10 µM): > 10000 nM
viability, T/C (second compound 0.1 µM, first compound 0.0316 µM): 98.9%
viability, T/C (second compound 0.1 µM, first compound 0.1 µM): 99.2%
viability, T/C (second compound 0.1 µM, first compound 0.316 µM): 99.8%
viability, T/C (second compound 0.1 µM, first compound 1 µM): 98%
viability, T/C (second compound 0.1 µM, first compound 3.16 µM): 102%
viability, T/C (second compound 0.1 µM, first compound 10 µM): 84%
viability, T/C (second compound 0.316 µM, first compound 0.0316 µM): 91.1%
viability, T/C (second compound 0.316 µM, first compound 0.1 µM): 87.4%
viability, T/C (second compound 0.316 µM, first compound 0.316 µM): 97.2%
viability, T/C (second compound 0.316 µM, first compound 1 µM): 98.4%
viability, T/C (second compound 0.316 µM, first compound 3.16 µM): 101%
viability, T/C (second compound 0.316 µM, first compound 10 µM): 81.4%
viability, T/C (second compound 1 µM, first compound 0.0316 µM): 90.1%
viability, T/C (second compound 1 µM, first compound 0.1 µM): 87.7%
viability, T/C (second compound 1 µM, first compound 0.316 µM): 89.3%
viability, T/C (second compound 1 µM, first compound 1 µM): 95.5%
viability, T/C (second compound 1 µM, first compound 3.16 µM): 90.3%
viability, T/C (second compound 1 µM, first compound 10 µM): 80.8%
viability, T/C (second compound 3.16 µM, first compound 0.0316 µM): 94.4%
viability, T/C (second compound 3.16 µM, first compound 0.1 µM): 89.7%
viability, T/C (second compound 3.16 µM, first compound 0.316 µM): 92.1%
viability, T/C (second compound 3.16 µM, first compound 1 µM): 91.3%
viability, T/C (second compound 3.16 µM, first compound 3.16 µM): 93.6%
viability, T/C (second compound 3.16 µM, first compound 10 µM): 70.1%
viability, T/C (second compound 10 µM, first compound 0.0316 µM): 92.2%
viability, T/C (second compound 10 µM, first compound 0.1 µM): 89.4%
viability, T/C (second compound 10 µM, first compound 0.316 µM): 85.1%
viability, T/C (second compound 10 µM, first compound 1 µM): 89.6%
viability, T/C (second compound 10 µM, first compound 3.16 µM): 83.3%
viability, T/C (second compound 10 µM, first compound 10 µM): 55.5%
